Here are results for 14 molecules from patent US20230303575A1, “FGFR AND MUTATION INHIBITOR THEREOF, PREPARATION METHOD THEREFOR AND USE THEREOF” (Abbisko Therapeutics Co., Ltd., priority 2020, published 2023).

What all share (format): cell-based
In one experiment the target is T1, FGFR2 K659M (Homo sapiens, UniProt P21802, K659M).
T1 construct: P41212 (Transcription factor ETV6)
In words: Cell proliferation assay for Tel-FGFR2 K659M in BaF3. Conditions: BaF3 cells expressing FGFR2 K659M fusion, 48 hrs, CellTiter Glo. The protocol: (§1) By transfection, cell strains of the intracellular kinase domain fusion protein of TEL-FGFR2 WT or the intracellular domain fusion proteins containing FGFR2 V564, V564F, V564L, N549K and K659M mutations were stably expressed in Baf cells. On day 1, the cell suspension was plated into a 96-well plate containing growth medium (DMEM containing 1% Glutamax, 10% FBS and 1% Pen/Strep) at 2000-4000 cells/90 μL/per well, and then the mixture was incubated overnight at 37° C. and 5% CO2. On day 2, 10 μL of growth medium containing a 10-fold stock solution of test compound was added to the cell culture (9 dose points, 3× serial dilution, starting from 1 μM, finally 0.3% DMSO). After incubation at 37° C. and 5% CO2 for 48 hrs, 50 μL of CellTiter Glo (CTG) reagent was added to the cell-containing 96-well plate on day 3, and the plate was then incubated at room temperature for 10 min. Then relative light units (RLUs) were measured on a microplate reader with a luminescence detection module. RLU values were normalized to % survival, and concentration-response curves were plotted using Prism to calculate IC50 (nM).
A general note: Cellular ATP, detected with luciferase, serves as a proxy for viable cell number.

Another experiment has as its target T2, FGFR2 V564L (Homo sapiens, UniProt P21802, V564L).
T2 construct: P41212 (Transcription factor ETV6)
As to the kind of experiment: Cell proliferation assay for Tel-FGFR2 V564L in BaF3. Conditions: BaF3 cells expressing FGFR2 V564L fusion, 48 hrs, CellTiter Glo. The protocol: as §1

For another experiment, the target named is T3, FGFR2 V564F (Homo sapiens, UniProt P21802, V564F).
T3 construct: P41212 (Transcription factor ETV6)
In words: Cell proliferation assay for Tel-FGFR2 V564F in BaF3. The conditions noted are these: BaF3 cells expressing FGFR2 V564F fusion, 48 hrs, CellTiter Glo. The procedure: as §1

A further experiment concerns the target T4, FGFR3 N540K (Homo sapiens, UniProt P22607, N540K).
T4 construct: P41212 (Transcription factor ETV6)
As to the kind of experiment: Cell proliferation assay for FGFR3 N540K in BaF3. Conditions: BaF3 cells expressing FGFR3 N540K fusion, 48 hrs, CellTiter Glo. The protocol:
(§2) For the compounds of the Examples of the present invention, cell strains of TEL-FGFR3 WT intracellular kinase domain fusion protein or intracellular domain fusion protein containing FGFR3 V555M or FGFR3 N540K mutation were stably expressed in Baf cells by transfection and were used to determine the cell proliferation effect of BaF3-Tel-FGFR3 WT. FGFR3 V555M or FGFR3 N540K. The specific test process was as follows: • 1) The cell suspension was plated into a 96-well plate containing growth medium (DMEM containing 1% Glutamax, 10% FBS and 1% Pen/Strep) at 2000-4000 cells/90 μL/per well, and then the mixture was incubated overnight at 37° C. and 5% CO2. • 2) 10 μL of growth medium containing a 10-fold stock solution of test compound was added to the cell culture (9 dose points, 3× serial dilution, starting from 1 μM, finally 0.3% DMSO). • 3) The mixture was incubated at 37° C. and 5% CO2 for 48 hrs. • 4) 50 μL of CellTiter Glo (CTG) reagent was added to the cell-containing 96-well plate, and the plate was then incubated at room temperature for 10 min. • 5) Relative light units (RLUs) were measured on a microplate reader with a luminescence detection module. RLU values were normalized to % survival, and concentration-response curves were plotted using Prism to calculate IC50 (nM).

For another experiment, the target named is T5, FGFR3 V555M (Homo sapiens, UniProt P22607, V555M).
T5 construct: P41212 (Transcription factor ETV6)
As to the kind of experiment: Cell proliferation assay for FGFR3 V555M in BaF3. Conditions: BaF3 cells expressing FGFR3 V555M fusion, 48 hrs, CellTiter Glo. The procedure: as §2

In a further experiment the target is T6, FGFR2 N549K (Homo sapiens, UniProt P21802, N549K).
T6 construct: P41212 (Transcription factor ETV6)
In words: Cell proliferation assay for Tel-FGFR2 N549K in BaF3. Conditions: BaF3 cells expressing FGFR2 N549K fusion, 48 hrs, CellTiter Glo. The procedure:
as §1

A further experiment deals with T7, FGFR2 V564I (Homo sapiens, UniProt P21802, V564I).
T7 construct: P41212 (Transcription factor ETV6)
In words: Cell proliferation assay for Tel-FGFR2 V564I in BaF3. Conditions: BaF3 cells expressing FGFR2 V564I fusion, 48 hrs, CellTiter Glo. The protocol:
as §1

T4 sequence (P22607 472-761 N540K limits assumed): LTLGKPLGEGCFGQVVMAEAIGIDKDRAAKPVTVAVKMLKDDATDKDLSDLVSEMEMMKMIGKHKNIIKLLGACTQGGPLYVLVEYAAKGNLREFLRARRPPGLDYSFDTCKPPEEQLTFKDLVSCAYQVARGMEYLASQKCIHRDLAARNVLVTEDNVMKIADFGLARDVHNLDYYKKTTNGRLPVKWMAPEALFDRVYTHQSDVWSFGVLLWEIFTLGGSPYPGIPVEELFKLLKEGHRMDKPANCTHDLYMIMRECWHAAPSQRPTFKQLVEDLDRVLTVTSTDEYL
T6 sequence (P21802 481-770 N549K limits assumed): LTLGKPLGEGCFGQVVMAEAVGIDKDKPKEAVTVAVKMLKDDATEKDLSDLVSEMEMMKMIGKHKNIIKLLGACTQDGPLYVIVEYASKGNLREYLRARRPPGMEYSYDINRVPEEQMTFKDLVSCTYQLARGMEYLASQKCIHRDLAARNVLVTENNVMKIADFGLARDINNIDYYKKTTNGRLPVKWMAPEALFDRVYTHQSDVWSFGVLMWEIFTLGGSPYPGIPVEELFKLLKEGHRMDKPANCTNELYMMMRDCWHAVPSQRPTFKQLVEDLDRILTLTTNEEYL
T7 sequence (P21802 481-770 V564I limits assumed): as the sequence (P21802 481-770 N549K limits assumed) above, with K69N, V84I counted along it
T2 sequence (P21802 481-770 V564L limits assumed): as the sequence (P21802 481-770 N549K limits assumed) above, with K69N, V84L counted along it
T3 sequence (P21802 481-770 V564F limits assumed): as the sequence (P21802 481-770 N549K limits assumed) above, with K69N, V84F counted along it
T1 sequence (P21802 481-770 K659M limits assumed): as the sequence (P21802 481-770 N549K limits assumed) above, with K69N, K179M counted along it
T5 sequence (P22607 472-761 V555M limits assumed): as the sequence (P22607 472-761 N540K limits assumed) above, with K69N, V84M counted along it

A word on the IC50: it is the concentration that inhibits the measured activity by half. The low end stands for higher potency, the high end for lower potency. Turning to `CN(C)C/C=C/C(=O)N1CC(n2nc(C#Cc3c(F)cc4oc(N5CCC5)nc4c3F)c3c(N)ncnc32)C1` [Example 77, (E)-1-(3-(4-amino-3-((2-(azetidin-1-yl)-4,6-difluorobenzo[d]oxazol-5-yl)ethynyl)-1H-pyrazolo[3,4-d]pyrimidin-1-yl)azetidin-1-yl)-4-(dimethylamino)but-2-en-1-one], the IC50 was 5 to 50 nM against FGFR2 K659M; 0.5 to 5 nM at FGFR2 V564L; at most 0.5 nM at FGFR2 V564F; 5 to 50 nM against FGFR3 N540K; 0.5 to 5 nM against FGFR3 V555M; 0.5 to 5 nM on FGFR2 N549K.

Consider `C=CC(=O)N1CC[C@H](n2nc(C#Cc3cc4nc(C)sc4cc3F)c3c(N)ncnc32)C1` [Example 57, (S)-1-(3-(4-amino-3-((6-fluoro-2-methylbenzo[d]thiazol-5-yl)ethynyl)-1H-pyrazolo[3,4-d]pyrimidin-1-yl)pyrrolidin-1-yl)prop-2-en-1-one], for which the IC50 is 0.5 to 5 nM against FGFR2 V564L; at most 0.5 nM on FGFR2 V564F; at most 0.5 nM on FGFR2 V564I; 5 to 50 nM on FGFR3 V555M; 0.5 to 5 nM on FGFR2 N549K.

For `C=CC(=O)N1CC[C@H](n2cc(C#Cc3c(F)cc4sc(C)nc4c3F)c3c(N)ncnc32)C1` [Example 75, (S)-1-(3-(4-amino-5-((4,6-difluoro-2-methylbenzo[d]thiazol-5-yl)ethynyl)-7H-pyrrolo[2,3-d]pyrimidin-7-yl)pyrrolidin-1-yl)prop-2-en-1-one], the IC50 against FGFR2 K659M is 0.5 to 5 nM; on FGFR2 V564F it was 0.5 to 5 nM; against FGFR2 V564I, at most 0.5 nM; against FGFR3 V555M, 0.5 to 5 nM.

As to `C=CC(=O)N1CC[C@H](n2cc(C#Cc3cc4nc(C5CC5)sc4cc3F)c3c(N)ncnc32)C1` [Example 48, (S)-1-(3-(4-amino-5-((2-cyclopropyl-6-fluorobenzo [d]thiazol-5-yl)ethynyl)-7H-pyrrolo[2,3-d]pyrimidin-7-yl)pyrrolidin-1-yl)prop-2-en-1-one], the IC50 against FGFR2 V564L was 0.5 to 5 nM; against FGFR2 V564F it was 0.5 to 5 nM; at FGFR2 V564I, at most 0.5 nM; on FGFR3 V555M, 0.5 to 5 nM; at FGFR2 N549K, 0.5 to 5 nM.

For the molecule `C=CC(=O)N1CC[C@H](n2nc(C#Cc3cc4nc(C5CC5)sc4cc3F)c3c(N)ncnc32)C1` [Example 59, (S)-1-(3-(4-amino-3-((2-cyclopropyl-6-fluorobenzo [d]thiazol-5-yl)ethynyl)-1H-pyrazolo[3,4-d]pyrimidin-1-yl)pyrrolidin-1-yl) prop-2-en-1-one], the IC50 on FGFR2 V564L was 0.5 to 5 nM; at FGFR2 V564F, 0.5 to 5 nM; on FGFR2 V564I, at most 0.5 nM; against FGFR3 V555M it was 0.5 to 5 nM; at FGFR2 N549K, 0.5 to 5 nM.

Take `C=CC(=O)N1CC[C@H](n2cc(C#Cc3c(F)cc4sc(C5CC5)nc4c3F)c3c(N)ncnc32)C1` [Example 51, (S)-1-(3-(4-amino-5-((2-cyclopropyl-4,6-difluoro-benzo[d]thiazol-5-yl)ethynyl)-7H-pyrrolo[2,3-d]pyrimidin-7-yl)pyrrolidin-1-yl) prop-2-en-1-one]: the IC50 against FGFR2 V564L is 0.5 to 5 nM; at FGFR2 V564F, at most 0.5 nM; against FGFR2 V564I it was at most 0.5 nM; at FGFR3 V555M, 0.5 to 5 nM; at FGFR2 N549K, 0.5 to 5 nM.

Consider `C=CC(=O)N1CC[C@H](n2nc(C#Cc3c(F)cc4oc(NC)nc4c3F)c3c(N)ncnc32)C1` [Example 67, (S)-1-(3-(4-amino-3-((4,6-difluoro-2-(methylamino)benzo[d]oxazol-5-yl)ethynyl)-1H-pyrazolo[3,4-d]pyrimidin-1-yl)pyrrolidin-1-yl)prop-2-en-1-one], for which the IC50 fell in the range of 0.5 to 5 nM on FGFR2 V564F, 5 to 50 nM against FGFR3 N540K and 0.5 to 5 nM against FGFR3 V555M.

With `C=CC(=O)N1C[C@@H](n2nc(C#Cc3c(F)cc4sc(N5CCC5)nc4c3F)c3c(N)ncnc32)C[C@@H]1COC` [Example 69, 1-((2R,4S)-4-(4-amino-3-((2-(azetidin-1-yl)-4,6-difluorobenzo[d]thiazol-5-yl)ethynyl)-1H-pyrazolo[3,4-d]pyrimidin-1-yl)-2-(methoxy-methyl)pyrrolidin-1-yl)prop-2-en-1-one], the IC50 against FGFR2 K659M was 5 to 50 nM; at FGFR2 V564L, 0.5 to 5 nM; on FGFR2 V564F, at most 0.5 nM; against FGFR3 V555M it was at most 0.5 nM; on FGFR2 N549K it was 0.5 to 5 nM.

In the case of `C=CC(=O)N1CC[C@H](n2cc(C#Cc3ccc4sc(CC)nc4c3)c3c(N)ncnc32)C1` [Example 44, (S)-1-(3-(4-amino-5-((2-ethylbenzo[d]thiazol-5-yl)ethynyl)-7H-pyrrolo[2,3-d]pyrimidin-7-yl)pyrrolidin-1-yl)prop-2-en-1-one], the IC50 is 0.5 to 5 nM against FGFR2 V564L; 0.5 to 5 nM against FGFR2 V564F; at most 0.5 nM against FGFR2 V564I; 5 to 50 nM against FGFR3 V555M; 0.5 to 5 nM against FGFR2 N549K.

As to `C=CC(=O)N1CC[C@H](n2nc(C#Cc3cc4nc(C5(F)CC5)oc4cc3F)c3c(N)ncnc32)C1` [Example 36], the IC50 at FGFR2 K659M is 0.5 to 5 nM; against FGFR2 V564F, at most 0.5 nM; against FGFR2 V564I, at most 0.5 nM; against FGFR3 V555M it was 0.5 to 5 nM.

As for `C=CC(=O)N1CC[C@H](n2cc(C#Cc3ccc4sc(C)nc4c3)c3c(N)ncnc32)C1` [Example 42, (S)-1-(3-(4-amino-5-((2-methylbenzo[d]thiazol-5-yl)ethynyl)-7H-pyrrolo[2,3-d]pyrimidin-7-yl)pyrrolidin-1-yl)prop-2-en-1-one], the IC50 at FGFR2 K659M is 5 to 50 nM; against FGFR2 V564L it was 0.5 to 5 nM; against FGFR2 V564F it was at most 0.5 nM; on FGFR3 V555M, 5 to 50 nM; on FGFR2 N549K, 0.5 to 5 nM.

As for `CN(C)C/C=C/C(=O)N1CC(n2nc(C#Cc3c(F)cc4sc(C5CC5)nc4c3F)c3c(N)ncnc32)C1` [Example 78, (E)-1-(3-(4-amino-3-((2-cyclopropyl-4,6-difluoro-benzo[d]thiazol-5-yl)ethynyl)-1H-pyrazolo[3,4-d]pyrimidin-1-yl)azetidin-1-yl)-4-(dimethylamino)but-2-en-1-one], the IC50 against FGFR2 K659M was 5 to 50 nM; on FGFR2 V564L, 0.5 to 5 nM; on FGFR2 V564F, at most 0.5 nM; against FGFR3 N540K, 5 to 50 nM; against FGFR3 V555M it was at most 0.5 nM; against FGFR2 N549K, 0.5 to 5 nM.

In the case of `C=CC(=O)N1CC[C@H](n2nc(C#Cc3ccc4sc(CC)nc4c3)c3c(N)ncnc32)C1` [Example 53, (S)-1-(3-(4-amino-3-((2-ethylbenzo[d]thiazol-5-yl)ethynyl)-1H-pyrazolo[3,4-d]pyrimidin-1-yl)pyrrolidin-1-yl)prop-2-en-1-one], the IC50 was 0.5 to 5 nM at FGFR2 V564L; 0.5 to 5 nM on FGFR2 V564F; at most 0.5 nM at FGFR2 V564I; 5 to 50 nM against FGFR3 V555M; 0.5 to 5 nM at FGFR2 N549K.

For `C=CC(=O)N1C[C@@H](n2nc(C#Cc3c(F)cc4sc(C5CC5)nc4c3F)c3c(N)ncnc32)C[C@@H]1COC` [Example 68, 1-((2R,4S)-4-(4-amino-3-((2-cyclopropyl-4,6-difluoro-benzo[d]thiazol-5-yl)ethynyl)-1H-pyrazolo[3,4-d]pyrimidin-1-yl)-2-(methoxy-methyl)pyrrolidin-1-yl) prop-2-en-1-one], the IC50 on FGFR2 K659M is 0.5 to 5 nM; at FGFR2 V564L, at most 0.5 nM; at FGFR2 V564F it was at most 0.5 nM; against FGFR3 N540K, 0.5 to 5 nM; on FGFR3 V555M, at most 0.5 nM; at FGFR2 N549K it was at most 0.5 nM.
